# Experimental data from patent publication US20070082880A1 (priority 2005, published 2007).
# pIC50: −log10 of the molar value.
# Target: T1, human PKCθ full length enzyme (Homo sapiens, UniProt Q04759)
# T1 construct: human PKCθ full length enzyme (Panvera Catalog No. P2996); purchased Panvera P2996
# Assay: PKCθ IMAP Assay
# Type: biochemical
# Settings: average value when one or more samples were tested; ATP 6 uM, PKCθ 1 nM
# How it was run: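 IMAP fluorescence polarization after 20 min with binding beads measured phosphorylation of 100 nM 5FAM-peptide. Reactions held 1 nM full-length human PKCθ, 6 uM ATP, 5% DMSO and DTT-containing buffer, 25 min at room temperature. Compounds tested as 2:1 serial dilutions; controls lacked ATP or enzyme.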
# T1 sequence (Q04759 whole entry): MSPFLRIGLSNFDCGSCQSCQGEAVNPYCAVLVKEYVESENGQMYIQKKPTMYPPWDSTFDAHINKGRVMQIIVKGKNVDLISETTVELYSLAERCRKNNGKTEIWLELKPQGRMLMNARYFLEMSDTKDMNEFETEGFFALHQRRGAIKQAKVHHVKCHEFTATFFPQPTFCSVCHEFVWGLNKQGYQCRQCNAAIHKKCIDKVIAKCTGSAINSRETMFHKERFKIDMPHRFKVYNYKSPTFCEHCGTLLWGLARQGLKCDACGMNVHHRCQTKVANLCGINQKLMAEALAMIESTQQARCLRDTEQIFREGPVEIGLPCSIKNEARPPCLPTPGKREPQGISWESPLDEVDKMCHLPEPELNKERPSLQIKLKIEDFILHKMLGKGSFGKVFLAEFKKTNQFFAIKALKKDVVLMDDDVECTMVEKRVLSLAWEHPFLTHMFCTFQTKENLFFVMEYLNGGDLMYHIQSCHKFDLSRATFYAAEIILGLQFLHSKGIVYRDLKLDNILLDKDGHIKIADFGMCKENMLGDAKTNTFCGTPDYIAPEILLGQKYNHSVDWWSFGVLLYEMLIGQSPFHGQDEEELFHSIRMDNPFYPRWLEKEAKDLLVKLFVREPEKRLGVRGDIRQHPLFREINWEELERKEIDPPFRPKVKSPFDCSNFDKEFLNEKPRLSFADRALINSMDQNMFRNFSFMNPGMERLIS
row,pIC50,Structure (SMILES)
1,6.96,"N#Cc1cnc2sc(-c3cccc(CNCCCN4CCOCC4)c3)cc2c1Nc1ccc2[nH]ccc2c1 [Compound 180, 4-(1H-indol-5-ylamino)-2-(3-{[(3-morpholin-4-ylpropyl)amino]methyl}phenyl)thieno[2,3-b]pyridine-5-carbonitrile]"
2,7.31,"Cc1c(Nc2c(C#N)cnc3sc(-c4cccc(N5CCCS5(=O)=O)c4)cc23)ccc2[nH]ccc12 [Compound 519, 2-[3-(1,1-dioxidoisothiazolidin-2-yl)phenyl]-4-[(4-methyl-1H-indol-5-yl)amino]thieno[2,3-b]pyridine-5-carbonitrile]"
3,6.62,"N#Cc1cnc2sc(-c3cccc(CN4CCCC4)c3)cc2c1Nc1ccc2[nH]ccc2c1 [Compound 159, 4-(1H-indol-5-ylamino)-2-[3-(pyrrolidin-1-ylmethyl)phenyl]thieno[2,3-b]pyridine-5-carbonitrile]"
4,6.42,"N#Cc1cnc2sc(-c3ccc(S(N)(=O)=O)cc3)cc2c1Nc1ccc2[nH]ccc2c1 [Compound 242, 4-[5-cyano-4-(1H-indol-5-ylamino)thieno[2,3-b]pyridin-2-yl]benzenesulfonamide]"
5,7.89,"Cc1c(Nc2c(C#N)cnc3sc(-c4ccc(S(N)(=O)=O)cc4)cc23)ccc2[nH]ccc12 [Compound 241, 4-{5-cyano-4-[(4-methyl-1H-indol-5-yl)amino]thieno[2,3-b]pyridin-2-yl}benzenesulfonamide]"
6,8.70,"COc1ccc(CNCCO)cc1-c1cc2c(Nc3ccc4[nH]ccc4c3C)c(C#N)cnc2s1 [Compound 517, 2-(5-{[(2-hydroxyethyl)amino]methyl}-2-methoxyphenyl)-4-[(4-methyl-1H-indol-5-yl)amino]thieno[2,3-b]pyridine-5-carbonitrile]"
7,6.55,"CC(=O)Nc1ccccc1-c1cc2c(Nc3ccc4[nH]ccc4c3C)c(C#N)cnc2s1 [Compound 435, N-(2-{5-cyano-4-[(4-methyl-1H-indol-5-yl)amino]thieno[2,3-b]pyridin-2-yl}phenyl)acetamide]"
8,7.74,"Cc1c(Nc2c(C#N)cnc3sc(-c4cccc(C(=O)N(C)CCN(C)C)c4)cc23)ccc2[nH]ccc12 [Compound 348, 3-{5-cyano-4-[(4-methyl-1H-indol-5-yl)amino]thieno[2,3-b]pyridin-2-yl}-N-[2-(dimethylamino)ethyl]-N-methylbenzamide]"
9,6.92,"Cc1c(Nc2c(C#N)cnc3sc(-c4ccc(OCCCl)cc4)cc23)ccc2[nH]ccc12 [Compound 351, 2-[4-(2-chloroethoxy)phenyl]-4-[(4-methyl-1H-indol-5-yl)amino]thieno[2,3-b]pyridine-5-carbonitrile]"
10,7.04,"COCCNC(=O)c1cc2c(Nc3ccc4[nH]ccc4c3C)c(C#N)cnc2s1 [Compound 262, 5-cyano-N-(2-methoxyethyl)-4-[(4-methyl-1H-indol-5-yl)amino]thieno[2,3-b]pyridine-2-carboxamide]"
11,6.77,"N#Cc1cnc2sc(-c3cccc(CN4CCC(CCO)CC4)c3)cc2c1Nc1ccc2[nH]ccc2c1 [Compound 177, 2-(3-{[4-(2-hydroxyethyl)piperidin-1-yl]methyl}phenyl)-4-(1H-indol-5-ylamino)thieno[2,3-b]pyridine-5-carbonitrile]"
12,6.80,"CN(C)CCNCc1cccc(-c2cc3c(Nc4ccc5[nH]ccc5c4)c(C#N)cnc3s2)c1 [Compound 166, 2-[3-({[2-(dimethylamino)ethyl]amino}methyl)phenyl]-4-(1H-indol-5-ylamino)thieno[2,3-b]pyridine-5-carbonitrile]"
13,7.00,"Cc1c(Nc2c(C#N)cnc3sc(-c4cccc(CN(C)C)c4)c(C)c23)ccc2[nH]ccc12 [Compound 458, 2-{3-[(dimethylamino)methyl]phenyl}-3-methyl-4-[(4-methyl-1H-indol-5-yl)amino]thieno[2,3-b]pyridine-5-carbonitrile]"
14,7.31,"CN(C)Cc1ccc2sc(-c3cc4c(Nc5ccc6[nH]ccc6c5)c(C#N)cnc4s3)cc2c1 [Compound 465, 2-{5-[(dimethylamino)methyl]-1-benzothien-2-yl}-4-(1H-indol-5-ylamino)thieno[2,3-b]pyridine-5-carbonitrile]"
15,7.23,"CNS(=O)(=O)c1ccc(-c2cc3c(Nc4ccc5[nH]ccc5c4)c(C#N)cnc3s2)cc1 [Compound 198, 4-[5-cyano-4-(1H-indol-5-ylamino)thieno[2,3-b]pyridin-2-yl]-N-methylbenzenesulfonamide]"
16,6.80,"Cc1c(Nc2c(C#N)cnc3sc(-c4ccc(N5CCOCC5)nc4)cc23)ccc2[nH]ccc12 [Compound 329, 4-[(4-methyl-1H-indol-5-yl)amino]-2-(6-morpholin-4-ylpyridin-3-yl)thieno[2,3-b]pyridine-5-carbonitrile]"
17,7.77,"Cc1c(Nc2c(C#N)cnc3sc(-c4cccc(S(=O)(=O)NCCO)c4)cc23)ccc2[nH]ccc12 [Compound 510, 3-{5-cyano-4-[(4-methyl-1H-indol-5-yl)amino]thieno[2,3-b]pyridin-2-yl}-N-(2-hydroxyethyl)benzenesulfonamide]"

row,pIC50,Structure (SMILES)
1,8.70,"CCN(CC)C(=O)/C=C/c1cc2c(Nc3ccc4[nH]ccc4c3C)c(C#N)cnc2s1 [Compound 306, (2E)-3-{5-cyano-4-[(4-methyl-1H-indol-5-yl)amino]thieno[2,3-b]pyridin-2-yl}-N,N-diethylacrylamide]"
2,7.36,"Cc1c(Nc2c(C#N)cnc3sc(C(=O)NC4CCNCC4)cc23)ccc2[nH]ccc12 [Compound 266, 5-cyano-4-[(4-methyl-1H-indol-5-yl)amino]-N-piperidin-4-ylthieno[2,3-b]pyridine-2-carboxamide]"
3,6.02,"N#Cc1cnc2sc(C(=O)Nc3ccncc3)cc2c1Nc1ccc2[nH]ccc2c1 [Compound 252, 5-cyano-4-(1H-indol-5-ylamino)-N-pyridin-4-ylthieno[2,3-b]pyridine-2-carboxamide]"
4,6.61,"CS(=O)(=O)Nc1cccc(-c2cc3c(Nc4ccc5[nH]ccc5c4)c(C#N)cnc3s2)c1 [Compound 359, N-{3-[5-cyano-4-(1H-indol-5-ylamino)thieno[2,3-b]pyridin-2-yl]phenyl}methanesulfonamide]"
5,7.06,"Cc1cc2[nH]ccc2cc1Nc1c(C#N)cnc2sc(-c3ccccc3)cc12 [Compound 323, 4-[(6-methyl-1H-indol-5-yl)amino]-2-phenylthieno[2,3-b]pyridine-5-carbonitrile]"
6,7.06,"CN(CCO)Cc1cccc(-c2cc3c(Nc4ccc5[nH]ccc5c4)c(C#N)cnc3s2)c1 [Compound 164, 2-(3-{[(2-hydroxyethyl)(methyl)amino]methyl}phenyl)-4-(1H-indol-5-ylamino)thieno[2,3-b]pyridine-5-carbonitrile]"
7,7.30,"Cc1c(Nc2c(C#N)cnc3sc(-c4ccccc4OC[C@@H](O)CO)cc23)ccc2[nH]ccc12 [Compound 492, 2-(2-{[(2S)-2,3-dihydroxypropyl]-oxy}phenyl)-4-[(4-methyl-1H-indol-5-yl)amino]thieno[2,3-b]pyridine-5-carbonitrile]"
8,7.80,"Cc1c(Nc2c(C#N)cnc3sc(-c4ccc(C(=O)NCCN(C)C)cc4)cc23)ccc2[nH]ccc12 [Compound 349, 4-{5-cyano-4-[(4-methyl-1H-indol-5-yl)amino]thieno[2,3-b]pyridin-2-yl}-N-[2-(dimethylamino)ethyl]benzamide]"
9,7.60,"Cc1c(Nc2c(C#N)cnc3sc(C(=O)Nc4ccncc4)cc23)ccc2[nH]ccc12 [Compound 257, 5-cyano-4-[(4-methyl-1H-indol-5-yl)amino]-N-pyridin-4-ylthieno[2,3-b]pyridine-2-carboxamide]"
10,7.85,"Cc1c(Nc2c(C#N)cnc3sc(-c4cccnc4)cc23)ccc2[nH]ccc12 [Compound 438, 4-[(4-methyl-1H-indol-5-yl)amino]-2-pyridin-3-ylthieno[2,3-b]pyridine-5-carbonitrile]"
11,6.50,"COc1ccc(-c2cc3c(Nc4ccc5[nH]ccc5c4)c(C#N)cnc3s2)cc1CN(C)C [Compound 456, 2-{3-[(dimethylamino)methyl]-4-methoxyphenyl}-4-(1H-indol-5-ylamino)thieno[2,3-b]pyridine-5-carbonitrile]"
12,7.35,"Cc1c(Nc2c(C#N)cnc3sc(-c4ccccc4OC[C@H](O)CO)cc23)ccc2[nH]ccc12 [Compound 493, 2-(2-{[(2R)-2,3-dihydroxypropyl]-oxy}phenyl)-4-[(4-methyl-1H-indol-5-yl)amino]thieno[2,3-b]pyridine-5-carbonitrile]"
13,6.46,"CC(C)c1c(I)sc2ncc(C#N)c(Nc3ccc4[nH]ccc4c3)c12 [Compound 321, 4-(1H-indol-5-ylamino)-2-iodo-3-isopropylthieno[2,3-b]pyridine-5-carbonitrile]"
14,6.77,"N#Cc1cnc2sc(-c3cccc(CN4CCC(O)CC4)c3)cc2c1Nc1ccc2[nH]ccc2c1 [Compound 176, 2-{3-[(4-hydroxypiperidin-1-yl)methyl]phenyl}-4-(1H-indol-5-ylamino) thieno[2,3-b]pyridine-5-carbonitrile]"
15,7.03,"CCCOc1ccc(CN(C)C)cc1-c1cc2c(Nc3ccc4[nH]ccc4c3C)c(C#N)cnc2s1 [Compound 384, 2-{5-[(dimethylamino)methyl]-2-propoxyphenyl}-4-[(4-methyl-1H-indol-5-yl)amino]thieno[2,3-b]pyridine-5-carbonitrile]"
16,8.52,"CN(C)Cc1cccc(-c2cc3c(Nc4cnc5[nH]ccc5c4Cl)c(C#N)cnc3s2)c1 [Compound 498, 4-(4-chloro-1H-pyrrolo[2,3-b]pyridin-5-ylamino)-2-(3-((dimethylamino)methyl)phenyl)thieno[2,3-b]pyridine-5-carbonitrile]"
17,7.01,"Cc1cc(C=O)cc(-c2cc3c(Nc4ccc5[nH]ccc5c4C)c(C#N)cnc3s2)c1 [Compound 378, 2-(3-formyl-5-methylphenyl)-4-[(4-methyl-1H-indol-5-yl)amino]thieno[2,3-b]pyridine-5-carbonitrile]"
